# According to US11897880B2, “7,8-dihydrobenzo[e]pyrido[3,4-c]azocine-2,5(3H,6H)-dione derivatives useful as a factor XIa inhibitors” (Janssen Pharmaceutica NV, priority 2021, dated 2024):
# Where two headings read alike, the source gives them in different places.
# How the values were obtained:
# Factor XIa = Factor XIa (Homo sapiens, UniProt P03951); test: Factor XIa inhibition assay utilizing a fluorophore-quencher pair peptide substrate (FLINT); assay type: biochemical; conditions: for Ki: read-out: FXIa Ki; for IC50: read-out: FXIa IC50
# Factor XIa, sequence (P03951 388-625 limits assumed): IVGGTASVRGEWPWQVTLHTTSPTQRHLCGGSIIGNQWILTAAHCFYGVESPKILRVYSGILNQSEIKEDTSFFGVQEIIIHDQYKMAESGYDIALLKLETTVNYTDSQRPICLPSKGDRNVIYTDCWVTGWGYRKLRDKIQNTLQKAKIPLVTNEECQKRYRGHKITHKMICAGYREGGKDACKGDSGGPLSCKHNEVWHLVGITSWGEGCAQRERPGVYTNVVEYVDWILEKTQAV
# Factor XIa, sequence (P03951 19-387 partner limits assumed): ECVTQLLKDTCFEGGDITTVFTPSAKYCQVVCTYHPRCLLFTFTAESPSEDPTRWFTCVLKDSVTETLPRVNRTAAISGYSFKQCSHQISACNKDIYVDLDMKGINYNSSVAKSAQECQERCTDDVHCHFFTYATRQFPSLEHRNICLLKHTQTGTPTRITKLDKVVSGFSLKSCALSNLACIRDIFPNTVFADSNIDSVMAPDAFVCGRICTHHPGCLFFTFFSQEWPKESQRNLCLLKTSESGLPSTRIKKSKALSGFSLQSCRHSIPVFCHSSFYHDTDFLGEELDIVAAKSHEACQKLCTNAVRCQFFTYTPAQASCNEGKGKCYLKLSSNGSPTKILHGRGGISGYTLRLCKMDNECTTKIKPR
# In short: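 Enzyme preincubated 30 min at room temperature with compound (11-point 3-fold dilution, top 100 nM, 2% DMSO), then 15 μM 5Fam-KLTRAETV-K5Tamra substrate added. Buffer: 50 mM Tris pH 7.5, 100 mM NaCl, 5 mM CaCl2, 0.1 mg/mL BSA, 0.03% CHAPS. Fluorescence (485/520 nm) read kinetically over 30 min; IC50 from 4-parameter logistic fit.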
# human plasma kallikrein = human plasma kallikrein (Homo sapiens, UniProt P03952); test: Kallikrein inhibition assay utilizing a quenched AMC peptide substrate (FLINT); assay type: biochemical; conditions: 30 min preincubation, 50 μM Z-Gly-Pro-Arg-AMC, 2 nM kallikrein
# human plasma kallikrein, sequence (P03952 391-638 limits assumed): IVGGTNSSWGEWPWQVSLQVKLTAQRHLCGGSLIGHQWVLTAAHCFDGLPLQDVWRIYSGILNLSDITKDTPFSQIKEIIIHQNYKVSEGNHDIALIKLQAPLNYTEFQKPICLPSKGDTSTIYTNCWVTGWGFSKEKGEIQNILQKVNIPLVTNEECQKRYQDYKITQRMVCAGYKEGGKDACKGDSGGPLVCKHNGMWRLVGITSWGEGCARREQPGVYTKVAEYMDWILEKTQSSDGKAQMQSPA
# human plasma kallikrein, sequence (P03952 20-390 partner limits assumed): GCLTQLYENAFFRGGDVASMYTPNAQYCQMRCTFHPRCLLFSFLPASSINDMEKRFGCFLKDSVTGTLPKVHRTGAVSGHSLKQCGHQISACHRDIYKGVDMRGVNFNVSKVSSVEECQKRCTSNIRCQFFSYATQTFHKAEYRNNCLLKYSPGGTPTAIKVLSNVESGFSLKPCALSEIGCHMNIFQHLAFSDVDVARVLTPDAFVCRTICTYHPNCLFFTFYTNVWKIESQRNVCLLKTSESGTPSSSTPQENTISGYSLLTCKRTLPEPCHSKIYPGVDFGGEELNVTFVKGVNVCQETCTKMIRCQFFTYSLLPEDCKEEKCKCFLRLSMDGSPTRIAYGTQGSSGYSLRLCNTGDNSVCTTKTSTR
# In short: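 Human plasma kallikrein (2 nM final) was preincubated 30 min at room temperature with compound (11-point 3-fold dilution, top 1 μM, 2% DMSO) in pH 7.5 Tris buffer with CaCl2, BSA and CHAPS. Z-Gly-Pro-Arg-AMC (50 μM final) fluorescence was read at 340/440 nm every 5 min for 30 min. IC50 came from a 4-parameter logistic fit.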
# [1] = cells that print μM themselves in the nM column
# [2] = cells that print μM themselves in the nM column, same assay conditions
# [3] = 30 min preincubation, 5Fam-KLTRAETV-K5Tamra substrate 15 μM final, kinetic reads
Ki (Factor XIa; [1]) [µM],IC50 (Factor XIa; [2]) [µM],IC50 (human plasma kallikrein) [nM],IC50 (Factor XIa; [3]) [µM],Ki (Factor XIa) [µM],Structure (SMILES)
4.57,9.15,> 10000,–,–,"Nc1ccc(-c2cnc([C@@H]3CCc4c5c(cc(=O)n43)-c3c(ccc(Cl)c3F)CCNC5=O)[nH]2)c(F)n1 (stereo in doubt) [Compound 46, (S*)-12-(5-(6-amino-2-fluoropyridin-3-yl)-1H-imidazol-2-yl)-7-chloro-8-fluoro-3,4,13,14-tetrahydrobenzo[5,6]azocino[4,3-g]indolizine-1,10(2H,12H)-dione]"
–,–,400,0.005,0.0025,"Nc1ccc(-c2cnc([C@H]3CCc4c5c(cc(=O)n43)-c3c(ccc(Cl)c3F)CCNC5=O)[nH]2)c(F)n1 (stereo in doubt) [Compound 47, (R*)-12-(5-(6-amino-2-fluoropyridin-3-yl)-1H-imidazol-2-yl)-7-chloro-8-fluoro-3,4,13,14-tetrahydrobenzo[5,6]azocino[4,3-g]indolizine-1,10(2H,12H)-dione]"
–,–,210,0.0023,0.0012,"Nc1ccc(-c2cnc([C@H]3CCc4c5c(cc(=O)n43)-c3c(ccc(Cl)c3F)CCNC5=O)[nH]2)c(Cl)n1 (stereo in doubt) [Compound 48, (R*)-12-(5-(6-amino-2-chloropyridin-3-yl)-1H-imidazol-2-yl)-7-chloro-8-fluoro-3,4,13,14-tetrahydrobenzo[5,6]azocino[4,3-g]indolizine-1,10(2H,12H)-dione]"
1.29,2.59,> 10000,–,–,"Nc1ccc(-c2cnc([C@@H]3CCc4c5c(cc(=O)n43)-c3c(ccc(Cl)c3F)CCNC5=O)[nH]2)c(Cl)n1 (stereo in doubt) [Compound 49, (S*)-12-(5-(6-amino-2-chloropyridin-3-yl)-1H-imidazol-2-yl)-7-chloro-8-fluoro-3,4,13,14-tetrahydrobenzo[5,6]azocino[4,3-g]indolizine-1,10(2H,12H)-dione]"
–,–,> 20000,0.301,0.15,"Cn1cncc1-c1cnc([C@@H]2CCc3c4c(cc(=O)n32)-c2c(ccc(Cl)c2F)CC2(CC2)NC4=O)[nH]1 (stereo in doubt) [Compound 50, (S*)-7-chloro-8-fluoro-12-(3′-methyl-3H,3′H-[4,4′-biimidazol]-2-yl)-13,14-dihydro-2H-spiro[benzo[5,6]azocino[4,3-g]indolizine-3,1′-cyclopropane]-1,10(4H,12H)-dione]"
> 5,> 10,> 10000,–,–,"Cn1cncc1-c1cnc([C@H]2CCc3c4c(cc(=O)n32)-c2c(ccc(Cl)c2F)CC2(CC2)NC4=O)[nH]1 (stereo in doubt) [Compound 51, (R*)-7-chloro-8-fluoro-12-(3′-methyl-3H,3H′-[4,4′-biimidazol]-2-yl)-13,14-dihydro-2H-spiro[benzo[5,6]azocino[4,3-g]indolizine-3,1′-cyclopropane]-1,10(4H,12H)-dione]"
–,–,> 10000,0.0959,0.0479,"Nc1ccc(-c2cnc([C@H]3CCc4c5c(cc(=O)n43)-c3c(ccc(Cl)c3F)CC3(CC3)NC5=O)[nH]2)c(Cl)n1 (stereo in doubt) [Compound 53, (R*)-12-(5-(6-amino-2-chloropyridin-3-yl)-1H-imidazol-2-yl)-7-chloro-8-fluoro-13,14-dihydro-2H-spiro[benzo[5,6]azocino[4,3-g]indolizine-3,1′-cyclopropane]-1,10(4H,12H)-dione]"
–,–,> 10000,0.224,0.112,"Nc1ccc(-c2cnc([C@H]3CCc4c5c(cc(=O)n43)-c3c(ccc(Cl)c3F)CC3(CC3)NC5=O)[nH]2)c(F)n1 (stereo in doubt) [Compound 54, (R*)-12-(5-(6-amino-2-fluoropyridin-3-yl)-1H-imidazol-2-yl)-7-chloro-8-fluoro-13,14-dihydro-2H-spiro[benzo[5,6]azocino[4,3-g]indolizine-3,1′-cyclopropane]-1,10(4H,12H)-dione]"
